Patent publication US20090170947A1, “DISINFECTANT COMPOSITIONS, METHODS AND SYSTEMS” (priority 2007, published 2009)
Counter-ions that a name gives are not always drawn.

How the values were obtained:
[1] = humans; doses of up to 3000 mg infused over 3 hours, daily; cited from earlier work
C. albicans = experiment: Checkerboard Titration, C. albicans; assay type: cell-based, Candida albicans; settings: PHMB with EDTA(Na4)
Procedure: (§3) The method used was a NCCLS micro-dilution procedure
(§4) Fraction Inhibitory Concentration (FIC) is defined as the MIC of the compound in combination divided by the MIC of the compound alone. If the FIC index is <0.5, the combination is interpreted to be synergistic; <1 but >0.5—as partially synergistic; =1 as additive; >1 but <4 as indifferent; and ≧4 as antagonistic. In order to calculate the FIC index the following calculations are performed for compounds A and B: • FIC-A=(MIC of A in combination)/(MIC of A alone) • FIC-B=(MIC of B in combination)/(MIC of B alone) • FIC-combination=FIC-A+FIC-B

P. aeruginosa = experiment: Checkerboard Titration, P. aeruginosa; assay type: cell-based, Pseudomonas aeruginosa; settings: PHMB with EDTA(Na4)
Procedure: as §3, §4

[2] = test system: blood coagulation (clotting); experiment: Prothrombin Time (PT) Assay; assay type: biochemical; settings: concentration of TEDTA of 4 wt %; ISI 1.89
Procedure: Experiments were conducted to assess the anticoagulant capacities of PHMB, EDTA and combinations of PHMB and EDTA via a Prothrombin Time (PT) Assay. A PT assay (TM-4339-063) was conducted using a Coagulation Analyzer to obtain PT instead of manually recording the PT. Tetrasodium […]) was used (Alfa Aesar, Catalog #A17385, Lot #J9570A). […] […] […] INR is calculated as: INR=([…] sample/PTnormal control)^ISI ISI (International Sensitivity Index) indicates the sensitivity of individual thromboplastin. […] All the PTs greater than 3×the […] 1 (normal control) were replaced with 32 seconds.

S. aureus = experiment: Checkerboard Titration, S. aureus; assay type: cell-based, Staphylococcus aureus; settings: PHMB with EDTA(Na4)
Procedure: The following concentrations were tested: Fraction Inhibitory Concentration (FIC) is defined as the MIC of the compound in combination divided by the MIC of the compound alone. […] In order to calculate the FIC index the following calculations are performed for compounds A and B: • FIC-A=(MIC of A in combination)/(MIC of A alone) • FIC-B=(MIC of B in combination)/(MIC of […]

[3] = test system: Pseudomonas aeruginosa (Organism #27853); experiment: MIC/MBC micro-dilution at pH 7, P. aeruginosa; assay type: cell-based; settings: pH of 7
Procedure: (§1) In order to determine MIC (minimum inhibitory concentration) and MBC (minimum bactericidal concentration) a National Committee on Clinical Laboratory Standards (NCCLS) micro-dilution procedure was followed. According to the procedure each formulation must be exposed to 6 log concentration of organism or the highest achievable concentration. In the current protocol 100 μL of MHB was mixed with 90 μL of formulation and 10 μL of log 8 organism or the highest achievable concentration. The concentration of the formulation was adjusted to obtain the required concentration in the final solution. The mixture was incubated at 37 degree C. for 16-24 hrs. After 16-24 hours the absorbance value was read at 600 nm. The obtained data was corrected by subtracting the appropriate blanks. Finally, the wells having an absorbance >0.1 were marked + and <0.1 were marked −. The +symbol indicated growth while −symbol indicates no growth.
(§2) Staphylococcus aureus (Organism #25923), Pseudomonas aeruginosa (Organism #27853), and Candida Albicans (Organism #10231) was obtained from ATCC. […] These solutions were then serially diluted as necessary to obtain the required concentrations.

[4] = test system: Staphylococcus aureus (Organism #25923); experiment: MIC/MBC micro-dilution at pH 7, S. aureus; assay type: cell-based; settings: pH of 7
Procedure: as §1, §2

[5] = test system: Candida Albicans (Organism #10231); experiment: MIC/MBC micro-dilution at pH 7, C. albicans; assay type: cell-based; settings: pH of 7
Procedure: as §1, §2

[6] = rabbit, in vivo; cited from earlier work

In the case of `O=C([O-])CN(CCN(CC(=O)[O-])CC(=O)O)CC(=O)O.[Na+].[Na+]` [EDTA disodium], the Tolerability [1] is listed as “well tolerated”.

With `O=C([O-])CN(CCN(CC(=O)[O-])CC(=O)[O-])CC(=O)[O-].[Na+].[Na+].[Na+].[Na+]` [EDTA(Na4), EDTA, tetrasodium salt hydrate] the “FIC of the single component (MIC in combination / MIC alone)” value (from here on “FIC … (MIC in combination / MIC alone)”) (C. albicans) was 0.3, the “FIC … (MIC in combination / MIC alone)” value (P. aeruginosa) was 0.25 and the “International Normalized Ratio (INR)” value [2] was “greater than 7.25”. The “FIC … (MIC in combination / MIC alone)” value (S. aureus) was 0.4.

Compound `O=C(O)CN(CCN(CC(=O)O)CC(=O)O)CC(=O)O` [EDTA, EDTA, tetrasodium salt hydrate] has an MBC [3] of under 4.00 wt %, an MIC [3] of under 0.25 wt % and an MBC [4] of under 0.13 wt %. The MIC [4] was under 0.03 wt % and the MIC [5] was over 4.0 wt %.

In the case of Poly(hexamethylenebiguanide) [PHMB], the NOAEL [6] is listed as “NOAEL = 20 mg/kg/day”.
